Structures are written as SMILES.

Data set [1] can be described thus: amount entering the intestinal lumen after administration. It is filed as in vivo. Conditions: following administration of teriflunomide.
Data set [2] concerns the target dihydrooate dehydrogenase (Homo sapiens, UniProt Q02127). Conditions: enzyme essential for the synthesis of pyrimidines; cited from earlier work.
For data set [3], the system named is immune cells and cell lines. Conditions: wide variety of immune cells and cell lines; cited from earlier work.
The subject of the next data set is inflammation. Conditions: animal models of inflammation; cited from earlier work.
A further data set concerns multiple sclerosis. Conditions: in vivo; cited from earlier work.
In a further data set the test system is Crohn's disease. Conditions: small number of patients with azathioprine intolerance; cited from earlier work.

dihydrooate dehydrogenase, sequence (Q02127 whole entry): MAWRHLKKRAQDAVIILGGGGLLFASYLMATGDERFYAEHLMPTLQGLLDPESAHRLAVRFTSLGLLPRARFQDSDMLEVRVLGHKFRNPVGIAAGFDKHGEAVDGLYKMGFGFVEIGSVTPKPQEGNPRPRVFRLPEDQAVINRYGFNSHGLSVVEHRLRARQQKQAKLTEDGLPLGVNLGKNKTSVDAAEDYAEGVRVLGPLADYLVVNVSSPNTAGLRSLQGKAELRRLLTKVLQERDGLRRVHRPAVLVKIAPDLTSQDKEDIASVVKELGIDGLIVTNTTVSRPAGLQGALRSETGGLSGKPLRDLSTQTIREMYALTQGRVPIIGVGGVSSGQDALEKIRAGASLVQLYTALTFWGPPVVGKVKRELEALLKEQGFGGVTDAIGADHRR

As for `C/C(O)=C(\C#N)C(=O)Nc1ccc(C(F)(F)F)cc1` [Teriflunomide, (Z)-2-cyano-3-hydroxy-but-2-enoic acid-(4′-trifluoromethylphenyl)-amide], the “amount of teriflunomide entering the intestinal lumen” value in data set [1] was “high amounts”. Moreover, in data set [2], the “inhibition of dihydrooate dehydrogenase” value is “inhibits”. For the same molecule, the antiproliferative effects result in data set [3] is reported as “antiproliferative effects”. Moreover, the anti-inflammatory activity result with inflammation is “anti-inflammatory activity”. In the data set on multiple sclerosis, the “efficacy in preclinical models of multiple sclerosis” value was “demonstrated efficacy”.

In the case of `Cc1oncc1C(=O)Nc1ccc(C(F)(F)F)cc1` [leflunomide, 5-methylisoxazole-4-carboxylic-(4-trifluoromethyl)-anilide], the “treatment of Crohn's disease” value in the data set with Crohn's disease was “successful use”.

Values taken from patent publication US20070197643A1, “USE OF (Z)-2-CYANO-3-HYDROXY-BUT-2-ENOIC ACID-(4'-TRIFLUOROMETHYLPHENYL)-AMIDE FOR TREATING INFLAMMATORY BOWEL DISEASE” (AVENTIS PHARMACEUTICALS INC., priority 2004, published 2007).
